In patent US5869500A, “Pyridone compounds useful in treating Alzheimer's disease” (Hoffmann-La Roche Inc., priority 1996, dated 1999):

Key:
[1] = tested on: Aβ production in HEK cells over-expressing Wild type β-APP; test: Aβ production inhibition, sandwich-ELISA in HEK cells which over-express Wild type β-APP (SE-WT); format: cell-based, human; details: Homo sapiens; for IC50: HEK293, based on the respective plateau of maximum inhibition; for Emax: HEK293, maximum inhibition plateau, read-out: SE-WT max. inhibition %
Experimental: (§1) The effect of test substances on the inhibition of Aβ-amyloid production can be measured in the supernatant of cell cultures of β-APP expressed cells using ELISA tests or other quantitative determination methods for β-APP degradation products. Typically, 8×10^5 cells (e.g. HEK cells, which express recombinant human β-APP variants) are plated out in each well of a culture dish having 24 wells in growth media such as e.g. OPTIMEM (Gibco) and the test compound is then added. After an incubation period of 24 to 48 hours at 37° C. in a 10% CO2 atmosphere the supernatant is removed from the cell cultures and the β-APP degradation products (e.g. Aβ or β-[…]) are determined with the aid of ELISA (or sandwich ELISA) analysis or by means of quantitative immunoprecipitation (after metabolic radiolabelling of the cell proteins). Typically, 300 μl of the cell supernatant are tested according to the state of the art for ELISA tests in culture dishes having 96 wells. In the case of sandwich ELISA for Aβ, the binding antibody can be directed against the first 16 amino acids of Aβ-peptide (e.g. 6E10 Senetek, Maryland Heights, Mo.) and the detection antibody can be directed against amino acids 17-40 or 17-42 of Aβ and carries a detection system such as e.g. peroxidase. A simple ELISA test with an antibody, e.g. 22C11 (Boehringer Mannheim), can be used as the test for […]; the second antibody can be an anti-(mouse) Ig having a detection system, such as e.g. peroxidase. The peroxidase reaction can be carried out e.g. using a TMB substrate (BioRAD) and the measurements can be carried out at 650 nm using an ELISA reading apparatus. […] SE-SFAD signifies the Aβ production inhibition measured using sandwich-ELISA in HEK cells, SFAD signifies over-expressed mutated β-APP, and SE-WT signifies the Aβ production inhibition measured using sandwich-ELISA in HEK cells which over-express Wild type β-APP. The IC50 values are based on the respective plateau of maximum inhibition.

[2] = tested on: Aβ production in HEK cells over-expressing mutated β-APP (SFAD); test: Aβ production inhibition, sandwich-ELISA in HEK cells, over-expressed mutated β-APP (SE-SFAD); format: cell-based, human; details: Homo sapiens, HEK293, HEK cells; for IC50: based on the respective plateau of maximum inhibition; for Emax: maximum inhibition plateau, read-out: SE-SFAD max. inhibition %
Experimental: as §1

Row | SMILES | IC50 [1] [nM] | Emax [1] [%] | IC50 [2] [nM] | Emax [2] [%]
1 | O=C(OCC#CCN1CCCC1)c1cc(-c2ccccc2)c(=O)n2ccc3ccsc3c12 [Compound 47, 4-(Pyrrolidin-1-yl)-but-2-ynyl 7-oxo-8-phenyl-7H-thieno[2,3-a]-quinolizine-10-carboxylate methanesulphonate] | 1500 | 55 | 5000 | 55
2 | COC(=O)c1cc(-c2ccccc2)c(=O)n2c1-c1[nH]c3ccccc3c1CC2 [Compound 63, Methyl 4-oxo-3-phenyl-4,6,7,12-tetrahydro-indolo[2,3-a]quinolizine-1-carboxylate] | 600 | 45 | 1000 | 65
3 | CCN(CCO)C(=O)c1cc(-c2ccccc2)c(=O)n2ccc3ccsc3c12 [Compound 21, 7-Oxo-8-phenyl-7H-thieno[2,3-a]quinolizine-10-carboxylic acid (2-hydroxy-ethyl)-ethyl-amide] | 40000 | 100 | – | –
4 | CC(=O)OC[C@H]1CCCN1C(=O)c1cc(-c2ccccc2)c(=O)n2ccc3ccsc3c12 [Compound 12, 1-(7-Oxo-8-phenyl-7H-thieno[2,3-a]quinolizine-10-carbonyl)-pyrrolidin-2-(R)-yl-methyl acetate] | 1000 | 50 | – | –
5 | COCCN(C(=O)c1cc(-c2ccc(Oc3ccccc3)cc2)c(=O)n2ccc3ccsc3c12)c1ccccc1 [Compound 101, 7--Oxo-8-(4-phenoxy-phenyl)-7H-thieno[2,3-a]quinolizine-10-carboxylic acid (2-methoxy-ethyl)-phenyl-amide] | – | – | 900 | 100
6 | COCCNC(=O)c1cc(-c2ccc(C(C)(C)C)cc2)c(=O)n2ccc3ccsc3c12 [Compound 110, 8-(4-tert-Butyl-phenyl)-7-oxo-7H-thieno[2,3-a]quinolizine-10-carboxylicacid (2-methoxy-ethyl)-amide] | – | – | 6200 | 95
7 | COCCN(CC1CC1)C(=O)c1cc(-c2ccccc2OC)c(=O)n2ccc3ccsc3c12 [Compound 119, 8-(2-Methoxy-phenyl)-7-oxo-7H-thieno[2,3-a]quinolizine-10-carboxylic acid cyclopropylmethyl-(2-methoxy-ethyl)-amide] | – | – | 1600 | 60 to 80
8 | COCCN(CCOC)C(=O)c1cc(-c2ccc(OCc3ccccc3)cc2)c(=O)n2ccc3c(ncn3C)c12 [Compound 103, 8-(4-Benzyloxy-phenyl)-3-methyl-7-oxo-3,7-dihydro-imidazo[4,5-a]-quinolizine-10-carboxylic acid bis-(2-methoxy-ethyl)-amide] | – | – | 5000 | 35 to 55
9 | COCCN(C(=O)c1cc(-c2ccc(OCc3ccccc3)cc2)c(=O)n2ccc3ccsc3c12)c1ccccc1 [Compound 72, 8-(4-Benzyloxy-phenyl)-7-oxo-7H-thieno[2,3-a]quinolizine-10-carboxylic acid (2-methoxy-ethyl)-phenyl-amide] | – | – | 500 | 100
10 | COCCN(C)C(=O)c1cc(-c2ccccc2)c(=O)n2ccc3ccsc3c12 [Compound 19, 7-Oxo-8-phenyl-7H-thieno[2,3-a]quinolizine-10-carboxylic acid (2-methoxy-ethyl)-methyl-amide] | 20000 | 100 | – | –
11 | COCCN(CCOC)C(=O)c1cc(-c2ccc(Oc3ccccc3)cc2)c(=O)n2ccc3ccsc3c12 [Compound 97, 7-Oxo-8-(4-phenoxy-phenyl)-7H-thieno[2,3-a]quinolizine-10-carboxylic acid bis-(2-methoxy-ethyl)-amide] | – | – | 2200 | 100
12 | COCCN(Cc1cccs1)C(=O)c1cc(-c2cccc(OC)c2)c(=O)n2ccc3ccsc3c12 [Compound 125, 8-(3-Methoxy-phenyl)-7-oxo-7H-thieno[2,3-a]quinolizine-10-carboxylic acid (2-methoxy-ethyl)-thiophen-2-yl-methyl-amide] | – | – | 2000 | 10
13 | O=C(c1cc(-c2ccc(OCc3ccccc3)cc2)c(=O)n2ccc3ccsc3c12)N(CCO)c1ccccc1 [Compound 73, 8-(4-Benzyloxy-phenyl)-7-oxo-7H-thieno[2,3-a]quinolizine-10-carboxylic acid (2-hydroxy-ethyl)-phenyl-amide] | – | – | 1300 | 55
14 | COCCN(C(=O)c1cc(-c2ccccc2N)c(=O)n2ccc3ccsc3c12)c1ccccc1 [Compound 153, 8-(2-Amino-phenyl)-7-oxo-7H-thieno[2,3-a]chinolizine-10-carboxylic acid (2-methoxy-ethyl)-phenyl-amide] | – | – | – | 20 to 40
15 | COCCN(C(=O)c1cc(-c2ccc(OCc3ccccc3)cc2)c(=O)n2ccc3c(ncn3C)c12)c1ccccc1 [Compound 102, 8-(4-Benzyloxy-phenyl)-3-methyl-7-oxo-3,7-dihydro-imidazo [4,5-a]quinolizine-10-carboxylic acid (2-methoxy-ethyl)-phenyl-amide] | – | – | 3600 | 80
16 | CCN(CCOC)C(=O)c1cc(-c2ccc(OCc3ccccc3)cc2)c(=O)n2ccc3ccsc3c12 [Compound 68, 8-(4-Benzyloxy-phenyl)-7-oxo-7H-thieno[2,3-a]quinolizine-10-carboxylic acid ethyl-(2-methoxy-ethyl)-amide] | – | – | 8000 | 25
17 | COc1ccc(NC(=O)c2cc(-c3ccccc3OC)c(=O)n3ccc4ccsc4c23)cc1 [Compound 142, 8-(2-Methoxy-phenyl)-7-oxo-7H-thieno[2,3-a]quinolizine-10-carboxylic acid (4-methoxy-phenyl)-amide] | – | – | 1500 | 20 to 100
18 | COCCN(CC1CC1)C(=O)c1cc(-c2ccc(OCc3ccccc3)cc2)c(=O)n2ccc3c(ncn3C)c12 [Compound 104, 8-(4-Benzyloxy-phenyl)-3-methyl-7-oxo-3,7-dihydro-imidazo [4,5-a]-quinolizine-10-carboxylic acid cyclopropylmethyl-(2-methoxy-ethyl)-amide] | – | – | 3000 | 100
19 | CCN(CCOC)C(=O)c1cc(-c2ccc(C)cc2)c(=O)n2ccc3ccsc3c12 [Compound 149, 7--Oxo-8-p-tolyl-7H-thieno[2,3-a]quinolizine-10-carboxylic acid ethyl-(2-methoxy-ethyl)-amide] | – | – | 2400 | 100
20 | COc1cccc(-c2cc(C(=O)Nc3ccncc3)c3c4sccc4ccn3c2=O)c1 [Compound 124, 8-(3-Methoxy-phenyl)-7-oxo-7H-thieno[2,3-a]quinolizine-10-carboxylic acid pyridin-4yl-amide] | – | – | 800 | 35
21 | O=C(c1cc(-c2ccccc2)c(=O)n2ccc3ccsc3c12)N1CCC[C@@H]1CI [Compound 11, 10-(2-(R)-Iodomethyl-pyrrolidine-1-carbonyl)-8-phenyl-thieno[2,3-a]-quinolizin-7-one] | 11000 | 100 | – | –
22 | CCN(CCOC)C(=O)c1cc(-c2ccc(C(C)(C)C)cc2)c(=O)n2ccc3ccsc3c12 [Compound 107, 8-(4-tert-Butyl-phenyl)-7-oxo-7H-thieno[2,3-a]quinolizine-10-carboxylicacid ethyl-(2-methoxy-ethyl)-amide] | – | – | 3000 | 20
23 | COCCN(CC1CC1)C(=O)c1cc(-c2ccc(OC)cc2)c(=O)n2ccc3ccsc3c12 [Compound 146, 8-(4-Methoxy-phenyl)-7-oxo-7H-thieno[2,3-a]quinolizine-10-carboxylic acid cyclopropylmethyl-(2-methoxy-ethyl)-amide] | – | – | 1500 | 100
24 | COCCN(Cc1ccccc1)C(=O)c1cc(-c2ccc(OCc3ccccc3)cc2)c(=O)n2ccc3ccsc3c12 [Compound 71, 8-(4-Benzyloxy-phenyl)-7-oxo-7H-thieno[2,3-a]quinolizine-10-carboxylic acid benzyl-(2-methoxy-ethyl)-amide] | – | – | 570 | 100
25 | COCCN(Cc1ccco1)C(=O)c1cc(-c2ccccc2OC)c(=O)n2ccc3ccsc3c12 [Compound 139, 8-(2-Methoxy-phenyl)-7-oxo-7H-thieno[2,3-a]quinolizine-10-carboxylic acid (furan-2-yl-methyl)-(2-methoxy-ethyl)-amide] | – | – | 3300 | 100
26 | COc1ccccc1-c1cc(C(=O)NCc2ccccc2)c2c3sccc3ccn2c1=O [Compound 135, 8-(2-Methoxy-phenyl)-7-oxo-7H-thieno[2,3-a]quinolizine-10-carboxylic acid benzyl-amide] | – | – | 3000 | 100
27 | COC(=O)c1cc(-c2ccccc2)c(=O)n2ccc3ccsc3c12 [Compound 15, Methyl 7-oxo-8-phenyl-7H-thieno[2,3-a]quinolizine-10-carboxylate] | – | – | 3000 | 60
